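Step 1: Grow cells in 96-well plates. Step 2: Expose to compound for 48 hours at 5 concentrations. Step 3: Interpolate endpoints linearly; if unreached, use highest concentration. GI50 = concentration required for 50% inhibition of growth.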 Activity calls are given as the source filed them. Rule as the data show it: active = GI50 up to about 1.1 µM and inactive = higher. Where a SMILES comes first, the peptide text is derived from it. The star is where a group is joined. Cbz = O=C(OCc1ccccc1)*; Boc = CC(C)(C)OC(=O)*; Bn = c1ccc(C*)cc1
Columns and labels:
Test in all cases: inhibition of tumour cell growth, NCI panel, 48 h
[1] = test system: HOP-62
[2] = test system: CAKI-1
[3] = test system: NCI-H23
[4] = test system: HOP-92
[5] = test system: 786-0
[6] = test system: NCI-H460
[7] = test system: HCC 2998
[8] = test system: SF-539
[9] = test system: UO-31
[10] = test system: SW-620
[11] = test system: OVCAR-5
[12] = test system: UACC-257
[13] = test system: HL-60
[14] = test system: MDA-MB-231
[15] = test system: U-251
[16] = test system: MOLT-4
[17] = test system: IGROV-1
[18] = test system: CCRF-CEM
[19] = test system: K562
[20] = test system: A498

Row | SMILES | GI50 [1] | GI50 [2] | GI50 [3] | GI50 [4] | GI50 [5] | GI50 [6] | GI50 [7] | GI50 [8] | GI50 [9] | GI50 [10] | GI50 [11] | GI50 [12] | GI50 [13] | GI50 [14] | GI50 [15] | GI50 [16] | GI50 [17] | GI50 [18] | GI50 [19] | GI50 [20]
1 | Cc1ccc(SCC(OCn2cnc3c(Cl)nc(N)nc32)[C@H](C)F)cc1 (stereo not given in full) | > 100 µM (inactive) | > 100 µM (inactive) | 50.9 µM (inactive) | 63.7 µM (inactive) | 85.1 µM (inactive) | 78.2 µM (inactive) | > 100 µM (inactive) | > 100 µM (inactive) | 59.3 µM (inactive) | > 100 µM (inactive) | > 100 µM (inactive) | 21.1 µM (inactive) | 28.3 µM (inactive) | 46.7 µM (inactive) | 98.4 µM (inactive) | 18.9 µM (inactive) | > 100 µM (inactive) | 39.1 µM (inactive) | – | –
2 | CC(C)(C)OC(=O)NC(Cc1ccc(OCc2ccccc2)cc1)C(=O)NC(CCCCNC(=O)OCc1ccccc1)C(=O)O (stereo not given) (Boc-Tyr(Bn)-Lys(Cbz)-OH; configuration not given here) | 61.1 µM (inactive) | – | 29.2 µM (inactive) | 16.4 µM (inactive) | 54.1 µM (inactive) | – | 35.3 µM (inactive) | – | 73.8 µM (inactive) | 49 µM (inactive) | > 100 µM (inactive) | 87.9 µM (inactive) | 34.7 µM (inactive) | > 100 µM (inactive) | 33.8 µM (inactive) | 28 µM (inactive) | 34 µM (inactive) | > 100 µM (inactive) | 42.8 µM (inactive) | –
3 | CCOC(=O)C1(Cc2ccccc2)Cc2ccccc2C1=O (stereo not given) | 35.2 µM (inactive) | – | 17.3 µM (inactive) | 16.5 µM (inactive) | 32.5 µM (inactive) | 27.2 µM (inactive) | 34.4 µM (inactive) | 35.1 µM (inactive) | 14.6 µM (inactive) | 33.7 µM (inactive) | 30.4 µM (inactive) | > 10 µM (inactive) | 19.1 µM (inactive) | 25.9 µM (inactive) | 34.6 µM (inactive) | 19.6 µM (inactive) | 35.2 µM (inactive) | 27.8 µM (inactive) | 24 µM (inactive) | –
4 | COc1cccc2c1C(=O)c1c(O)c3c(c(O)c1C2=O)CC(O)(C(O)CO)CC3OC1CC(N2CCOCC2)C(O)C(C)O1 (stereo not given) | 0.00315 µM (active) | 0.00175 µM (active) | 0.00464 µM (active) | 0.065 µM (active) | 0.0277 µM (active) | < 0.001 µM (active) | < 0.001 µM (active) | 0.0043 µM (active) | – | 0.00144 µM (active) | 0.00475 µM (active) | 0.00338 µM (active) | – | 0.0165 µM (active) | 0.0047 µM (active) | – | 0.00279 µM (active) | 0.00849 µM (active) | 0.00412 µM (active) | 0.00135 µM (active)
5 | COc1ccc(Nc2nc3c([nH]2)c(=O)n(C)c(=O)n3C)cc1 | > 10 µM (inactive) | > 10 µM (inactive) | > 10 µM (inactive) | > 10 µM (inactive) | > 10 µM (inactive) | – | > 10 µM (inactive) | – | – | > 10 µM (inactive) | – | > 10 µM (inactive) | > 10 µM (inactive) | > 10 µM (inactive) | – | > 10 µM (inactive) | > 10 µM (inactive) | > 10 µM (inactive) | > 10 µM (inactive) | –
6 | COc1ccc(/C=N/n2c(Cc3ccc(Cl)cc3)n[nH]c2=O)c(OC)c1 | > 100 µM (inactive) | 45.4 µM (inactive) | 29.4 µM (inactive) | 29.2 µM (inactive) | 22.4 µM (inactive) | > 100 µM (inactive) | 44.6 µM (inactive) | > 100 µM (inactive) | > 100 µM (inactive) | > 100 µM (inactive) | 38.3 µM (inactive) | 41.1 µM (inactive) | – | 52.5 µM (inactive) | 32.2 µM (inactive) | > 100 µM (inactive) | 20.8 µM (inactive) | > 100 µM (inactive) | > 100 µM (inactive) | 20.4 µM (inactive)
7 | Clc1ccc(/N=C2\c3ccccc3CN2c2ccc(Cl)cc2)cc1 | 63.1 µM (inactive) | > 100 µM (inactive) | 89.5 µM (inactive) | 39.9 µM (inactive) | > 100 µM (inactive) | 62.8 µM (inactive) | 28.4 µM (inactive) | 30.2 µM (inactive) | > 100 µM (inactive) | > 100 µM (inactive) | > 100 µM (inactive) | > 100 µM (inactive) | – | 53.3 µM (inactive) | > 100 µM (inactive) | > 100 µM (inactive) | 39.8 µM (inactive) | < 0.01 µM (active) | 0.119 µM (active) | > 100 µM (inactive)
8 | Cc1ccc(Cc2n[nH]c(=O)n2N2C(=O)c3ccccc3C2=O)cc1 | > 100 µM (inactive) | > 100 µM (inactive) | > 100 µM (inactive) | > 100 µM (inactive) | > 100 µM (inactive) | > 100 µM (inactive) | > 100 µM (inactive) | > 100 µM (inactive) | > 100 µM (inactive) | > 100 µM (inactive) | > 100 µM (inactive) | > 100 µM (inactive) | – | > 100 µM (inactive) | > 100 µM (inactive) | > 100 µM (inactive) | > 100 µM (inactive) | > 100 µM (inactive) | > 100 µM (inactive) | > 100 µM (inactive)

From ChEMBL document CHEMBL1201862, “PubChem BioAssay data set” (2004)
